In patent US20240285631A1, “METHODS OF TREATING VASCULAR MALFORMATIONS” (priority 2023, published 2024):
“Also recorded” adds a separate entry of the source.

Key:
[1] = system: vascular anomalies in lungs and intestinal tracts of anti-BMP9/10-treated pups; assay: Blue latex dye vascular perfusion of lungs and duodenum in BMP9/10 Abs-treated pups; format: in vivo, mouse; settings: P7, BMP9/10 Abs + CDK4/6i
Source text: Vascular perfusion assessed using blue latex dye in lungs (FIGS. 10C-D), duodenum (FIGS. 10E-F) and brain (FIGS. 10G-H) from control, BMP9/10 Abs-treated, BMP9/10 Abs- and CDK4/6i-treated P7 animals. Lung samples have been clarified. Quantifications of intrapulmonary artery diameter (FIG. 10D) and intestinal capillary diameter (FIG. 10F). Red arrows indicate intestinal capillaries (N=3 to 7 animals/group. Data are mean±SEM, one-way ANOVA with Holm-Šidàk's multiple comparison test, **p≤0.01, *p≤0.05, ns p>0.05). […] We then analyzed the effects of BMP9/10 antibodies and CDK4/6i treatment on lungs, brains, and intestinal tracts, which are commonly affected by vascular malformations in HHT patients. To visualize vascular anomalies in these tissues, we performed intracardiac injections of blue latex silicon dye in P7 control, and anti-BMP9/10-treated pups, with or without CDK4/6i treatment following the dosing protocol as shown in FIG. 2A. […] P7 pups were deeply anesthetized with isoflurane using a nose cone and a thoracotomy was performed to expose the heart. For brain and gastrointestinal vasculature perfusions, the right atrium was cut and an insulin syringe (27 G) pre-filled with 1 ml of blue latex (VWR 470024-612) was inserted in the apex of the left ventricle to perfuse approximately 600 ml of latex. […]

[2] = system: retinal ECs in veins and arteries; assay: Flow-mediated EC polarization (Golgi orientation) in retinal vessels, BMP9/10 Abs model; format: in vivo, mouse; settings: BMP9/10 Abs + CDK4/6i
Source text: FIG. 3C illustrates the polarity axis of each cell was defined as the angle between the direction of blood flow and the cell polarity axis, defined by a vector drawn from the center of the cell nucleus to the center of the Golgi apparatus. FIG. 3D illustrates EC polarization in arteries and veins of control, BMP9/10 Abs-treated, and BMP9/10 Abs- and CDK4/6i-treated animals. EC nuclei are immunostained with anti-ERG1,2,3 and Golgi apparatus with anti-GM130; ECs are labelled with IB4. […] FIG. 3E illustrates angular histograms showing the distribution of polarization angles of retinal ECs in arteries and veins from control, BMP9/10 Abs-treated, and BMP9/10 Abs- and CDK4/6i-treated P6 animals (N=6 to 8 retinas). FIG. 3F illustrates polarity index dot plots of ECs from arteries (A) and veins (V) from control, BMP9/10 Abs-treated, and BMP9/10 Abs- and CDK4/6i-treated P6 animals (N=6 to 8 retinas. Data are mean±SEM **p≤0.01, ns p>0.05). Two-Way ANOVA for independent measures was used. p≤0.05 was considered statistically significant. […] To analyze the orientation of the Golgi toward the direction of the flow in retinal vessels, we measured the angle formed by the vector nucleus/Golgi in each EC and the predicted blood flow vector in the vessel (as depicted in FIG. 3C). We also quantified the EC polarization using a polarity index^22 ranging from 1 (highly polarized) to 0 (random distribution).

[3] = system: vascular malformations in Alk1EC^iKO pups; assay: Retinal vasculature analysis in Alk1EC^iKO pups (HHT type 2 model); format: in vivo, mouse
Source text: FIG. 5A illustrates a timeline used for tamoxifen (Tx) injection and CDK4/6i treatment of Alk1EC^iKO pups. FIG. 5B illustrates representative images showing retinal vasculature labelled with IB4 from control, Alk1EC^iKO, and Alk1EC^iKO+CDK4/6i-treated P5 animals. Bar graphs showing (FIG. 5C) quantification of AV shunt number per retina, (FIG. 5D) vascular density, and (FIG. 5E) vascular progression. (N=8 to 10 retinas/group, at least 4 mice). Data are mean±SEM, One-way ANOVA, *p≤0.05, **p≤0.01). FIG. 5F illustrates a timeline used for Tx injection and CDK4/6i treatment of Alk1EC^iKO pups for blue latex dye perfusion experiments. FIG. 5G illustrates blue latex dye vascular perfusion in brains from control, Alk1EC^iKO, and Alk1EC^iKO+CDK4/6i-treated P7 animals. […] FIG. 5H illustrates the quantification of left middle cerebral artery (MCA) and basilar artery (BA) in control, Alk1EC^iKO, and Alk1EC^iKO+CDK4/6i-treated animals. FIG. 5I illustrates the quantification of the number of latex filled veins in control, Alk1EC^iKO, and Alk1EC^iKO+CDK4/6i-treated animals. (N=4 to 6 mice/group. Data are mean±SEM, one-way ANOVA with Holm-Šidàk's multiple comparison test, *p≤0.05, **p≤0.01, ***p<0.001). Scale bar (G): 4 mm.
About 50% of HHT patients harbor mutations in the Acvrl1 gene^1, which encodes for the ALK1 receptor. To validate the clinical relevance of the use of Palbociclib for the treatment of HHT, we crossed Cdh5Cre^ERT2 mice with Alk1^flox/flox mice (6-8-week-old) to generate an endothelial-specific inducible deletion of Alk1 (referred to as Alk1EC^iKO), which is an established preclinical mouse model of human HHT type 2^12,25. Neonatal Alk1EC^iKO pups received a single i.p. injection of tamoxifen at P3 to induce Alk1 gene deletion and were then treated with Palbociclib via oral gavage at P4, and their retinal vasculature was analyzed at P5 (FIG. 5A). […] Due to the relatively short survival time post-tamoxifen induction in Alk1EC^iKO mice (approximately 48 hours), our study is limited to a single Palbociclib injection, which represents a technical challenge in exploring additional treatments. […] Single Cell RNA sequencing analysis of Palbociclib effects on endothelial arteriovenous identity in Alk1EC^iKO mice.
With bulk RNAseq analysis, we further investigated the effects of Palbociclib on these pathways in vivo on P7 retinal ECs from control pups or those treated with anti-BMP9/10, with or without CDK4/6i, as outlined in FIG. 2A. […] We also investigated the potential role of FLT1, a decoy receptor for VEFG-A, in the mechanism of action of Palbociclib, by injecting i.p. FLT1 blocking antibodies in Alk1EC^iKO mice simultaneously with CDK4/6i treatment (FIG. 8G).
(§1) All animal protocols and procedures were approved by the University of Virginia Animal Care and Use Committee and complied with all ethical regulations. Cdh5Cre^ERT21Rha^43 and Alk1^flox/flox were gifted from Drs. Ralf Adams and Paul Oh, respectively. R26p-Fucci2 (Fucci2) (Accession #CDB0203T)^44 and C57bl/6 mice were purchased from Riken and Jax, respectively. Cdh5Cre^ERT2 mice were crossed with Alk1^flox/flox mice (6-8-week-old) to generate Alk1EC^iKO pups. Cre activity in Alk1EC^iKO was induced in pups at P3 via a single intraperitoneal (i.p.) injection of Tamoxifen (Tx; Sigma T5648, […] of 4 mg/ml, resuspended in 10% ethanol and 90% corn oil). Alk1^flox/flox littermates were used as controls. Alk1EC^iKO mice were crossed with Fucci2 mice to generate Alk1EC^iKO-Fucci2 pups.

[4] = system: retinal ECs of Alk1EC^iKO-Fucci2 pups; assay: Endothelial cell cycle state in Alk1EC^iKO-Fucci2 pups; format: in vivo, mouse; settings: Alk1EC^iKO + CDK4/6i
Source text: as §1

VEGF-A signaling = assay: VEGF-A-induced AKT phosphorylation in Alk1 siRNA-silenced HUVECs; format: cell-based, human; settings: treated or not with Palbociclib
Source text: Next, we treated HUVECs with Alk1 siRNA to silence Alk1 and test the VEGF-A-induced response, with or without Palbociclib treatment, using pAKT activation as a readout.

[5] = system: retinal vascular development of control pups; assay: CDK4/6i treatment alone in control C57BL/6 pups, retinal vasculature; format: in vivo, mouse; settings: P7 control pups, no BMP9/10 Abs
Source text: FIGS. 10A and 10B illustrate the timeline used for CDK4/6i treatment alone in C57BL/6 pups and representative images showing retinal vasculature of P7 animals labelled with IB4 (N=3 to 4 animals/group). Vascular perfusion assessed using blue latex dye in lungs (FIGS. 10C-D), duodenum (FIGS. 10E-F) and brain (FIGS. 10G-H) from control, BMP9/10 Abs-treated, BMP9/10 Abs- and CDK4/6i-treated P7 animals. Lung samples have been clarified. Quantifications of intrapulmonary artery diameter (FIG. 10D) and intestinal capillary diameter (FIG. 10F). Red arrows indicate intestinal capillaries (N=3 to 7 animals/group. Data are mean±SEM, one-way ANOVA with Holm-Šidàk's multiple comparison test, **p≤0.01, *p≤0.05, ns p>0.05). Quantification of left middle cerebral artery (MCA) and basilar artery (BA) diameter (FIG. 10H). (N=5 to 9 animals/group. Data are mean±SEM, one-way ANOVA with Holm-Sidak's multiple comparison test, ns p>0.05). Scale bars: (FIGS. 10C and 10G): 2 mm, (E): 1 mm.
Thus, to test whether the use of pharmacological cell cycle modulators could prevent the development of AVMs in a murine model of HHT, we used Palbociclib, a CDK4 and CDK6 inhibitor (CDK4/6i) that blocks the transition from G1 to S state^8. Pups were injected at P2 and P4 with BMP9/10 antibodies, followed by Palbociclib treatment starting at P4, then at P5 and P6 (FIG. 2A).

[6] = tamoxifen P3, Palbociclib P4, P5

In the case of CC(=O)c1c(C)c2cnc(Nc3ccc(N4CCNCC4)cn3)nc2n(C2CCCC2)c1=O [Palbociclib, 6-acetyl-8-cyclopentyl-5-methyl-2-[5-(1-piperazinyl)pyridine-2-ylamino]pyrido[2,3-d]pyrimidin-7(8H)-one], the “vasodilation of small capillaries perfusing the duodenum” value ([1]; duodenum) is reported as “not prevented by CDK4/6i treatment”, the “lung vascular anomalies and intrapulmonary artery diameter” value ([1]; lungs) is reported as “significantly less vascular anomalies and intrapulmonary microvasculature vasodilation” and the “polarity of retinal ECs toward blood flow” value [2] is reported as “oriented similarly to controls”. The “AV shunt number per retina (FLT1 experiment)” value ([3]; Alk1^iECKO mice, Palbociclib alone, vs untreated) was “developed less AV shunts”, the “AV shunt number per retina with FLT1 blocking antibodies” value ([3]; Alk1^iECKO mice, Palbociclib plus i.p. FLT1 blocking antibodies (1.6 mg/kg)) was “numerous AV shunts, comparable to untreated” and the “vascular density at the front of the retinal vascular plexi” value [3, 6] was “prevented the formation of hyperdense and disorganized vascular networks”. The vascular progression [3, 6] was “normalized vascular progression”, the “number of AVMs (AV shunts) per retina” value ([3]; tamoxifen P3, Palbociclib oral gavage P4, retina at P5, vs untreated Alk1EC^iKO) was “significantly lower number of AVMs; also recorded: prevented the development of arterio-venous malformations” and the “percentage of ECs residing in the S/G2/M phases” value [4, 6] was “significantly lower in arteries and capillaries”. For the same molecule, the “proportion of ECs in late G1 state” value ([4]; arteries and capillaries) was “higher proportion of ECs in late G1 state”, the “cell cycle state of venous ECs” value ([4]; veins) was “no significant effects on venous ECs” and the “pAKT activation induced by VEGF-A in Alk1 silenced HUVECs” value (VEGF-A signaling) was “did not detect any differences”. The “retinal vascular development under CDK4/6i treatment by itself” value [5] was “did not impair retinal vascular development”.
